Measurements: ChEMBL document CHEMBL1153006, “Synthesis, NMR characterization and in vitro antitumor evaluation of new aminophosphonic acid diesters” (Eur J Med Chem, 2009)

How the values were obtained:
Assay type in all cases: functional, cell-based
LAMA-84 = test: Cytotoxicity against human LAMA-84 cells after 72 hrs by MTT assay; settings: LAMA-84, 72 h
K562 = test: Cytotoxicity against human K562 cells after 72 hrs by MTT assay; settings: K562, 72 h
HL-60 [1] = test: Cytotoxicity against human HL60 cells after 72 hrs by MTT assay; settings: HL-60, 72 h
HL-60 [2] = test: Cytotoxicity against multidrug-resistant human HL60 cells overexpressing in MRP-1 after 72 hrs by MTT assay; settings: HL-60, 72 h

Structure (SMILES)	IC50 (LAMA-84)	IC50 (K562)	IC50 (HL-60 [1])	IC50 (HL-60 [2])
CCOP(=O)(OCC)C(NCCCN(C)C)c1ccco1 (stereo unspecified)	> 400 µM	353 µM	163 µM	190 µM
Cc1ccc(/N=C\c2ccc(N(C)C)cc2)cc1	252 µM	213 µM	> 400 µM	226 µM
CCOP(=O)(OCC)C(Nc1ccc(C)cc1)c1ccc(N(C)C)cc1 (stereo unspecified)	119 µM	42.4 µM	> 400 µM	107 µM
Cc1ccc(/N=C\c2ccco2)cc1 [N-FURFURYLIDENE-P-TOLUIDINE]	39.9 µM	29.9 µM	> 400 µM	68.6 µM
